# Measurements as given in publication PMC3447335, “Evaluation of Pseudopteroxazole and Pseudopterosin Derivatives against Mycobacterium tuberculosis and Other Pathogens” (Marine Drugs, 2012).
# Assays:
# Assay in all cases: microbe, parasite or virus in culture
# Assay type in all cases: cell-based
# [1] = system: M. tuberculosis H37Rv isogenic strain resistant to rifampin (RMPr); conditions: Mycobacterium tuberculosis, read-out: MABA MIC RMPr
# [2] = system: M. tuberculosis H37Rv isogenic strain resistant to isoniazid (INHr); conditions: Mycobacterium tuberculosis, read-out: MABA MIC INHr
# [3] = system: M. tuberculosis H37Rv isogenic strain resistant to streptomycin (SMr); conditions: Mycobacterium tuberculosis, read-out: MABA MIC SMr
# [4] = system: M. tuberculosis H37Rv isogenic strain resistant to kanamycin (KMr); conditions: Mycobacterium tuberculosis, read-out: MABA MIC KMr
# [5] = system: M. tuberculosis H37Rv isogenic strain resistant to cycloserine (CSr); conditions: Mycobacterium tuberculosis, read-out: MABA MIC CSr
# [6] = system: M. tuberculosis H37Rv isogenic strain resistant to moxifloxacin (MOXr); conditions: Mycobacterium tuberculosis, read-out: MABA MIC MOXr
smiles,measurement,setting,value
"CC(C)=C[C@@H]1C[C@H](C)[C@H]2CC[C@H](C)c3c2c1c(C)c1ncoc31 [Compound 1, pseudopteroxazole]",MIC,[1],8 µg/mL
same,MIC,[2],8 µg/mL
same,MIC,[3],14 µg/mL
same,MIC,[4],16 µg/mL
same,MIC,[5],14 µg/mL
same,MIC,[6],8 µg/mL
NNC(=O)c1ccncc1 [Isoniazid],MIC,[1],0.12 µg/mL
same,MIC,[2],> 1.1 µg/mL
same,MIC,[3],0.13 µg/mL
same,MIC,[4],0.13 µg/mL
same,MIC,[5],0.12 µg/mL
same,MIC,[6],0.03 µg/mL
"CO[C@H]1/C=C/O[C@@]2(C)Oc3c(C)c(O)c4c(O)c(c(/C=N/N5CCN(C)CC5)c(O)c4c3C2=O)NC(=O)/C(C)=C\C=C\[C@H](C)[C@H](O)[C@@H](C)[C@@H](O)[C@@H](C)[C@H](OC(C)=O)[C@@H]1C [Rifampin, reference compound]",MIC,[1],> 3.3 µg/mL
same,MIC,[2],0.02 µg/mL
same,MIC,[3],0.08 µg/mL
same,MIC,[4],0.02 µg/mL
same,MIC,[5],0.01 µg/mL
same,MIC,[6],0.02 µg/mL
